Here are results for 2 molecules from publication PMC6644896 (ACS Omega, 2018).

The target of experiment [1] is T1, human DNA topoisomerase I (Homo sapiens, UniProt P11387).
T1 sequence (P11387 2-765): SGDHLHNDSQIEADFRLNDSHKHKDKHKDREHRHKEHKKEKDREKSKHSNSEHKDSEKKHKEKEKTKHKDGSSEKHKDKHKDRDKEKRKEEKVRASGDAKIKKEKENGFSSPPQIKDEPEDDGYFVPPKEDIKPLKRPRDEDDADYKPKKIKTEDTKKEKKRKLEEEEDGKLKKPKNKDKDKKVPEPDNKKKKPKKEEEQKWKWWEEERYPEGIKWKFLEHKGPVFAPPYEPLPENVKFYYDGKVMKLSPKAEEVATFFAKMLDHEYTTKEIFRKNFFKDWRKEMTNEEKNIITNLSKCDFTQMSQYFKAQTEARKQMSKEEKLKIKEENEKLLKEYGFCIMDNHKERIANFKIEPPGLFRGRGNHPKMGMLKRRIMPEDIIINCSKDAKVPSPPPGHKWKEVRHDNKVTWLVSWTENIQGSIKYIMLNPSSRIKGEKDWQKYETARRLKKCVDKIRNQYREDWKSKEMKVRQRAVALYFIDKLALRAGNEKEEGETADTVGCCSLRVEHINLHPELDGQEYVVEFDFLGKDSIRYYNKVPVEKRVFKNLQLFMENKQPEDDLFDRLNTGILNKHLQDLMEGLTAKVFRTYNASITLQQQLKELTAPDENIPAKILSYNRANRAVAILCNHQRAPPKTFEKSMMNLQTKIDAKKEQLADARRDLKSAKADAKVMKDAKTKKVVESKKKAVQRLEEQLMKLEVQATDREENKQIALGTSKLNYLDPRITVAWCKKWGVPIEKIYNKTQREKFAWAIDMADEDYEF
The experiment can be described thus: DNA relaxation assay, agarose gel. The class given is biochemical.

Experiment [2] deals with human DNA topoisomerase II alpha (Homo sapiens, UniProt P11388). Nature of the experiment: DNA relaxation assay, agarose gel. The class given is biochemical.
Chain of human DNA topoisomerase II alpha (P11388 whole entry): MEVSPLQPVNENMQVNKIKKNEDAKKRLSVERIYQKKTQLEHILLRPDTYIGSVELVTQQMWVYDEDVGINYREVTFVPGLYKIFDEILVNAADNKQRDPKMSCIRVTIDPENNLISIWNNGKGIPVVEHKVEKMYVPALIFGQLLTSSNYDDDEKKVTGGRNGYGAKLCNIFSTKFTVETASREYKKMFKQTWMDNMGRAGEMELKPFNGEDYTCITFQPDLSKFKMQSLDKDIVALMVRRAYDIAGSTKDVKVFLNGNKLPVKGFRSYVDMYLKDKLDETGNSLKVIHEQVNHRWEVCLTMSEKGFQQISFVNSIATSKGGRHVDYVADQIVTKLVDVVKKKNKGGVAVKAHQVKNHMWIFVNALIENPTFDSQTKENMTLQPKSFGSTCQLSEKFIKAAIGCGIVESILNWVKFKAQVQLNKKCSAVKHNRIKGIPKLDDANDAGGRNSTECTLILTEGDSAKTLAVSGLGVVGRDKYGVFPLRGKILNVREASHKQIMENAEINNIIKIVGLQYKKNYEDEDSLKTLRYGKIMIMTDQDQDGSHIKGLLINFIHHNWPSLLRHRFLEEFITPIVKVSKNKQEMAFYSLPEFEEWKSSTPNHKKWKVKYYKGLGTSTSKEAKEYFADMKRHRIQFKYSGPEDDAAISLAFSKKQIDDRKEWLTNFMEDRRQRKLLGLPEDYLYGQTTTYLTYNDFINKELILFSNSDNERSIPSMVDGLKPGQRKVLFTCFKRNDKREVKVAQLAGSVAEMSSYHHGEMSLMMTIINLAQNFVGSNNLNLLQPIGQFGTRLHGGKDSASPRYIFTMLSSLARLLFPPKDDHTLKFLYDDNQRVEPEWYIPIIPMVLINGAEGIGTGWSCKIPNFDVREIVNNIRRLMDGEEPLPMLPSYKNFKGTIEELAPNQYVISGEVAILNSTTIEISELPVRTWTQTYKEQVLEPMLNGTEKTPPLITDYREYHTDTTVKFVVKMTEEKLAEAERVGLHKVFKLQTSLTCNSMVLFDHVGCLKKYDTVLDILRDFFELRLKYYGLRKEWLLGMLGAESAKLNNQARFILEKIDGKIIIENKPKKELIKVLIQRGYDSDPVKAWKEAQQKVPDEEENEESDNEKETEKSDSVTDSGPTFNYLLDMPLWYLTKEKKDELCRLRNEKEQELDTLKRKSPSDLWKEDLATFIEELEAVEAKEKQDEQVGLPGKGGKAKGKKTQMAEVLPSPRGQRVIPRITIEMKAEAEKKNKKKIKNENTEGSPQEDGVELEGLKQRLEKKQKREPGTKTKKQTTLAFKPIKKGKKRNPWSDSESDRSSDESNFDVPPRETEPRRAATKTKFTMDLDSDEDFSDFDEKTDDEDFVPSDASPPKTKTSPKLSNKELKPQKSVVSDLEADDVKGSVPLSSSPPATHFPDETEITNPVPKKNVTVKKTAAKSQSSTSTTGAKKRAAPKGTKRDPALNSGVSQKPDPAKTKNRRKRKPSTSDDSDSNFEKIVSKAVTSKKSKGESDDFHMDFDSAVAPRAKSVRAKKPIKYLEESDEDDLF

For `CC[C@@]1(O)C(=O)OCc2c1cc1n(c2=O)Cc2cc3ccccc3nc2-1` [CPT, camptothecin], the “DNA relaxation assay, agarose gel (5 and 10 μM)” value in experiment [1] is “CPT (a control for topoisomerase I inhibition) and DOX (a control for topoisomerase II inhibition) at two different concentrations”.

Regarding `COc1cccc2c1C(=O)c1c(O)c3c(c(O)c1C2=O)C[C@@](O)(C(=O)CO)C[C@@H]3O[C@H]1C[C@H](N)[C@H](O)[C@H](C)O1` [DOX, doxorubicin], the “DNA relaxation assay, agarose gel (5 and 10 μM)” value in experiment [2] was “These showed no DNA migration, indicating complete inhibition of the respective topoisomerase enzymes”.
